Test results published in patent US20240400560A1, “BICYCLIC HETEROCYCLIC DERIVATIVE HAVING VIRAL GROWTH INHIBITORY ACTIVITY AND PHARMACEUTICAL COMPOSITION CONTAINING SAME” (Shionogi & Co., Ltd., priority 2021, published 2024).
Where two headings read alike, the source gives them in different places.

Target: SARS-CoV-2 3CL protease (Severe acute respiratory syndrome coronavirus 2, UniProt P0DTD1)
Assay: Inhibitory activity test against SARS-CoV-2 3CL proteases
Format: biochemical
[1] = read-out: IC50 (50% SARS-CoV-2 3CL protease inhibitory concentration)
[2] = IC50 (50% SARS-CoV-2 3CL protease inhibitory concentration)

Structure (SMILES)	IC50 [1]	IC50 [2]
CN=S(C)(=O)c1ccc(Cl)c(-c2cc(OC)c3c(=O)n(-c4cncc(Cl)c4)c(=O)n(Cc4cc(F)c(F)c(F)c4)c3c2)c1 (centres unmarked) [Compound I-0199]	16 nM	
COc1cc(-c2cc(CC(=O)NC3CCN(C)CC3)ccc2Cl)cc2c1c(=O)n(-c1cncc(Cl)c1)c(=O)n2Cc1ccc(F)c(C#N)c1 [Compound I-0201]	< 100 nM	
COc1cc(-c2cc(CC(=O)NCCS(C)(=O)=O)ccc2Cl)cc2c1c(=O)n(-c1cncc(Cl)c1)c(=O)n2Cc1cc(F)c(F)c(F)c1 [Compound I-0202]	20 nM	
COc1cc(-c2cc(CC(=O)NCCN(C)C)ccc2Cl)cc2c1c(=O)n(-c1cncc(Cl)c1)c(=O)n2Cc1ccc(F)c(C#N)c1 [Compound I-0203]	< 100 nM	
COc1cc(-c2cc(CC(=O)NCCN(C)C)ccc2Cl)cc2c1c(=O)n(-c1cncc(Cl)c1)c(=O)n2Cc1cc(F)c(F)c(F)c1 [Compound I-0204]	< 100 nM	
COc1cc(-c2cc(CC(=O)N(C)C)ccc2Cl)cc2c1c(=O)n(-c1cncc(Cl)c1)c(=O)n2Cc1cc(Cl)ccc1C [Compound I-0205]	< 100 nM	
COc1cc(-c2cc(CC(N)=O)ccc2Cl)cc2c1c(=O)n(-c1cncc(Cl)c1)c(=O)n2Cc1cc(F)c(F)c(F)c1 [Compound I-0206]	< 100 nM	
COc1cc(-c2cc(S(C)(=N)=O)ccc2Cl)cc2c1c(=O)n(Cc1ncn(C)n1)c(=O)n2Cc1cc(F)c(F)c(F)c1 (centres unmarked) [Compound I-0207]	23 nM	
COc1cc(-c2cc(C(=O)N3CCOCC3)ccc2Cl)cc2c1c(=O)n(-c1cncc(C)c1)c(=O)n2Cc1ccc(F)c(C#N)c1 [Compound I-0209]	< 100 nM	
COc1cc(-c2cc(N=S(C)(C)=O)ccc2Cl)cc2c1c(=O)n(-c1cncc(Cl)c1)c(=O)n2Cc1cc(F)c(F)c(F)c1 [Compound I-0210]	28 nM	
COc1cc(-c2cc(CC(=O)N3CC[C@H](N)C3)ccc2Cl)cc2c1c(=O)n(-c1cncc(Cl)c1)c(=O)n2Cc1cc(F)c(F)c(F)c1 [Compound I-0211]	< 100 nM	
COc1cc(-c2cc(C(=O)NCCN(C)C)ccc2Cl)cc2c1c(=O)n(Cc1ncn(C)n1)c(=O)n2Cc1cc(F)c(F)c(F)c1 [Compound I-0212]	< 100 nM	
CNC(=O)c1ccc(Cl)c(-c2cc(OC)c3c(=O)n(Cc4ncn(C)n4)c(=O)n(Cc4cc(F)c(F)c(F)c4)c3c2)c1 [Compound I-0213]	33 nM	
COc1cc(-c2cc(C(=O)NCCO)ccc2Cl)cc2c1c(=O)n(Cc1ncn(C)n1)c(=O)n2Cc1cc(F)c(F)c(F)c1 [Compound I-0214]	< 100 nM	
COc1cc(-c2cc(C(=O)NCCNCCO)ccc2Cl)cc2c1c(=O)n(Cc1ncn(C)n1)c(=O)n2Cc1cc(F)c(F)c(F)c1 [Compound I-0216]	< 100 nM	
COc1cc(-c2cc(C(=O)NCCN3CCOCC3)ccc2Cl)cc2c1c(=O)n(Cc1ncn(C)n1)c(=O)n2Cc1cc(F)c(F)c(F)c1 [Compound I-0217]	< 100 nM	
Cc1cc2c(=O)n(Cc3ncn(C)n3)c(=O)n(Cc3cc(F)c(F)c(F)c3)c2cc1-c1cc2c(cc1Cl)NC(=O)C2 [Compound I-0248]	7.3 nM	
Cn1cnc(Cn2c(=O)c3cc(F)c(-c4cc5c(cc4Cl)NC(=O)C5)cc3n(Cc3cc(F)c(F)c(F)c3)c2=O)n1 [Compound I-0249]	33 nM	
Cn1cnc(Cn2c(=O)c3ccc(-c4cc5c(cc4Cl)NC(=O)C5)c(F)c3n(Cc3cc(F)c(F)c(F)c3)c2=O)n1 [Compound I-0250]	35 nM	
COc1cc(-c2cc3[nH]c(=O)[nH]c3cc2Cl)cc2c1c(=O)n(Cc1ncn(C)n1)c(=O)n2Cc1cc(F)c(F)c(F)c1 [Compound I-0265]	< 100 nM	

Structure (SMILES)	IC50 [1]	IC50 [2]
Cn1cnc(Cn2c(=O)c3c(F)cc(-c4cc5c(cc4Cl)NC(=O)C5)cc3n(Cc3cc(F)c(F)c(Cl)c3)c2=O)n1 [Compound I-0267]	< 100 nM	
COc1cc(-c2c(Cl)ccc3c(=O)n(C)ccc23)cc2c1c(=O)n(Cc1ncn(C)n1)c(=O)n2Cc1cc(F)c(F)c(F)c1 [Compound I-0268]	7.5 nM	
Cn1cnc(Cn2c(=O)c3c(F)cc(-c4cc5cn[nH]c5cc4Cl)cc3n(Cc3cc(F)c(F)c(Cl)c3)c2=O)n1 [Compound I-0269]	< 100 nM	
Cn1cnc(Cn2c(=O)c3c(F)cc(-c4cc5c(cc4Cl)NC(=O)C5)cc3n(Cc3cc(F)c(F)c(F)c3)c2=O)n1 [Compound I-0270]	< 100 nM	
COc1cc(-c2cc(C#N)ccc2Cl)cc2c1c(=O)n(Cc1ncn(C)n1)c(=O)n2Cc1cc(F)c(F)c(Cl)c1 [Compound I-0271]	< 100 nM	
COc1cc(-c2cc3cn[nH]c3cc2Cl)cc2c1c(=O)n(Cc1ncn(C)n1)c(=O)n2Cc1cc(Cl)c(F)cc1F [Compound I-0272]	< 100 nM	
COc1cc(-c2c(Cl)ccc3c(=O)[nH]ccc23)cc2c1c(=O)n(Cc1ncn(C)n1)c(=O)n2Cc1cc(F)c(F)c(F)c1 [Compound I-0274]	15 nM	
COc1cc(-c2cc3c(cc2Cl)NC(=O)C3(C)C)cc2c1c(=O)n(Cc1ncn(C)n1)c(=O)n2Cc1cc(F)c(F)c(F)c1 [Compound I-0275]	19 nM	
COc1cc(-c2cc(C(C)(C)O)ccc2Cl)cc2c1c(=O)n(Cc1ncn(C)n1)c(=O)n2Cc1cc(F)c(F)c(F)c1 [Compound I-0276]	24 nM	
COc1cc(-c2c(Cl)ccc3c2CNC3=O)cc2c1c(=O)n(Cc1ncn(C)n1)c(=O)n2Cc1cc(F)c(F)c(F)c1 [Compound I-0277]	24 nM	
COc1cc(-c2c(Cl)ccc3c2CN(C)C3=O)cc2c1c(=O)n(Cc1ncn(C)n1)c(=O)n2Cc1cc(F)c(F)c(F)c1 [Compound I-0278]	26 nM	
COc1cc(-c2cc(C#N)ccc2Cl)cc2c1c(=O)n(Cc1ncn(C)n1)c(=O)n2Cc1cc(Cl)c(F)cc1F [Compound I-0279]	< 100 nM	
Cn1cnc(Cn2c(=O)c3c(F)cc(-c4cc(C#N)ccc4Cl)cc3n(Cc3cc(F)c(F)c(Cl)c3)c2=O)n1 [Compound I-0281]	< 100 nM	
COc1cc(-c2cc(C(C)=O)ccc2Cl)cc2c1c(=O)n(Cc1ncn(C)n1)c(=O)n2Cc1cc(F)c(F)cc1F [Compound I-0282]	< 100 nM	
COc1cc(-c2cc(C3COC3)ccc2Cl)cc2c1c(=O)n(Cc1ncn(C)n1)c(=O)n2Cc1cc(F)c(F)c(F)c1 [Compound I-0283]	32 nM	
NC(=O)c1ccc(Cl)c(-c2ccc3c(=O)n(Cc4ccc[nH]c4=O)c(=O)n(Cc4cc(F)c(F)c(F)c4)c3c2)c1 [Compound I-0296]	< 100 nM	
NC(=O)c1ccc(Cl)c(-c2nc3c(cc2F)c(=O)n(Cc2ccc[nH]c2=O)c(=O)n3Cc2cc(F)c(F)c(F)c2)c1 [Compound I-0301]	98 nM	
O=c1[nH]cccc1Cn1c(=O)c2c(n(Cc3cc(F)c(F)c(F)c3)c1=O)CCCC2 [Compound I-0325]	450 nM	
Cn1cnc(Cn2c(=O)c3c4c(c(-c5cc6c(cc5Cl)NC(=O)C6)cc3n(Cc3cc(F)c(F)c(F)c3)c2=O)CCO4)n1 [Compound I-0353]	0.45 nM	
COc1cc(-c2cc(CN=S(C)(C)=O)ccc2Cl)cc2c1c(=O)n(Cc1ncn(C)n1)c(=O)n2Cc1cc(F)c(F)c(F)c1 [Compound I-0363]	35 nM	

Structure (SMILES)	IC50 [1]	IC50 [2]
O=c1[nH]cccc1Cn1c(=O)c2ccc(N3C[C@@H]4CN[C@@H](C4)C3)cc2n(Cc2cc(F)c(F)c(F)c2)c1=O [Compound I-0378]	< 100 nM	
O=c1[nH]cccc1Cn1c(=O)c2ccc(N3[C@@H]4CC[C@H]3CNC4)cc2n(Cc2cc(F)c(F)c(F)c2)c1=O [Compound I-0379]		< 100 nM
O=c1[nH]cccc1Cn1c(=O)c2ccc(N3C[C@@H]4CC[C@H]3CN4)cc2n(Cc2cc(F)c(F)c(F)c2)c1=O [Compound I-0380]	14 nM	
O=c1[nH]cccc1Cn1c(=O)c2ccc(N3[C@@H]4CNC[C@H]3COC4)cc2n(Cc2cc(F)c(F)c(F)c2)c1=O [Compound I-0381]		< 100 nM
COc1nc(N2CC[C@@H](O)C2)cc2c1c(=O)n(Cc1ncn(C)n1)c(=O)n2Cc1cc(F)c(F)c(Cl)c1 [Compound I-0388]	20 nM	
COc1nc(N2C[C@H]3C[C@@H]2CN3)cc2c1c(=O)n(Cc1ncn(C)n1)c(=O)n2Cc1cc(F)c(F)c(F)c1 [Compound I-0389]	1.9 nM	
Cn1cnc(Cn2c(=O)c3ccc(N4C[C@H]5C[C@@H]4CN5)cc3n(Cc3cc(F)c(F)c(F)c3)c2=O)n1 [Compound I-0393]	< 100 nM	
COc1cc(N2C[C@H]3C[C@@H]2CN3)cc2c1c(=O)n(Cc1ncn(C)n1)c(=O)n2Cc1cc(F)c(F)c(F)c1 [Compound I-0395]	2.2 nM	
COc1cc(N2C[C@H]3C[C@@H]2CN3)cc2c1c(=O)n(-c1cncc(Cl)c1)c(=O)n2Cc1cc(F)c(F)c(F)c1 [Compound I-0396]	1.3 nM	
Cn1cnc(Cn2c(=O)c3c4c(c(-c5cc(C#N)ccc5Cl)cc3n(Cc3cc(F)c(F)c(F)c3)c2=O)CCO4)n1 [Compound I-0414]	1.5 nM	
Cn1cnc(Cn2c(=O)c3c4c(c(N5CC[C@@H](O)C5)cc3n(Cc3cc(F)c(F)c(F)c3)c2=O)CCO4)n1 [Compound I-0415]	< 100 nM	
Cn1cnc(Cn2c(=O)c3c4c(c(N5C[C@H]6C[C@@H]5CN6)cc3n(Cc3cc(F)c(F)c(F)c3)c2=O)CCO4)n1 [Compound I-0429]	< 100 nM	
N#Cc1ccc(Cl)c(-c2cc3c(c(=O)[nH]2)c(=O)n(-c2cncc(Cl)c2)c(=O)n3Cc2cc(F)c(F)c(F)c2)c1 [Compound I-0431]	11 nM	
Cn1c(-c2cc(C#N)ccc2Cl)cc2c(c1=O)c(=O)n(-c1cncc(Cl)c1)c(=O)n2Cc1cc(F)c(F)c(F)c1 [Compound I-0435]	1 nM	
CCn1c(-c2cc(C#N)ccc2Cl)cc2c(c1=O)c(=O)n(-c1cncc(Cl)c1)c(=O)n2Cc1cc(F)c(F)c(F)c1 [Compound I-0437]	1.3 nM	
CC1COc2c1c(-c1cc(C#N)ccc1Cl)cc1c2c(=O)n(Cc2ncn(C)n2)c(=O)n1Cc1cc(F)c(F)c(F)c1 (centres unmarked) [Compound I-0438]	3.5 nM	
CC1Cc2c(-c3cc(C#N)ccc3Cl)cc3c(c2O1)c(=O)n(Cc1ncn(C)n1)c(=O)n3Cc1cc(F)c(F)c(F)c1 (centres unmarked) [Compound I-0439]	4.7 nM	
CC1COc2c1c(N1CC[C@@H](O)C1)cc1c2c(=O)n(Cc2ncn(C)n2)c(=O)n1Cc1cc(F)c(F)c(F)c1 (some centres unmarked) [Compound I-0440]	10 nM	
N#Cc1ccc(Cl)c(-c2cc3c(c4c2CCO4)c(=O)n(Cc2ncccn2)c(=O)n3Cc2cc(F)c(F)c(F)c2)c1 [Compound I-0442]	< 100 nM	
